Assay results from ChEMBL document CHEMBL1157563 (J Med Chem, 2010).
Calls of active or inactive are those of the source. The rule behind the calls is not given here.

How the values were obtained:
Histone deacetylase = assay type: cell-based, Homo sapiens; conditions: hela
Description: Inhibition of HDAC in human HeLa cell nuclear extract

[1] = biological target: Receptor tyrosine-protein kinase erbB-2 (Homo sapiens, UniProt P04626)
[2] = biological target: Epidermal growth factor receptor (Homo sapiens, UniProt P00533)
MDA-MB-231 = test: Antiproliferative activity against human MDA-MB-231 cells after hrs by ATP content assay; assay type: functional, cell-based
cells [3] = assay type: functional, cell-based, Hep 3B2; conditions: Homo sapiens, Hep3B
Description: Antiproliferative activity against human Hep3B2 cells after hrs by ATP content assay

[4] = biological target: Proto-oncogene tyrosine-protein kinase Src (Homo sapiens, UniProt P12931); test: Inhibition of Src
NCI-H358 [5] = test: Antitumor activity against human NCI-H358 cells xenografted in nude CD1 mouse at 60 mg/kg, iv dosed daily on 7-6-5 (on-off-on) schedule relative to control; assay type: functional
A549 = test: Antitumor activity against human A549 cells xenografted in nude CD1 mouse at 120 mg/kg, iv daily relative to control; assay type: functional
[6] = biological target: NAD-dependent protein deacetylase sirtuin-3, mitochondrial (Homo sapiens) (UniProt Q9NTG7); test: Inhibition of human SIRT3 expressed in Escherichia coli
[7] = biological target: NAD-dependent protein deacetylase sirtuin-2 (Homo sapiens) (UniProt Q8IXJ6); test: Inhibition of human SIRT2 expressed in Escherichia coli
HepG2 [8] = test: Antitumor activity against human HepG2 cells xenografted in nude CD1 mouse assessed as tumor regression at 120 mg/kg, iv daily relative to control; assay type: functional
[9] = biological target: Tyrosine-protein kinase Lck (Homo sapiens, UniProt P06239); test: Inhibition of Lck
[10] = biological target: Tyrosine-protein kinase Lyn (Homo sapiens, UniProt P07948); test: Inhibition of Lyn
CAPAN-1 = test: cells; assay type: functional, cell-based; conditions: Homo sapiens
Description: Antiproliferative activity against human Capan1 cells after hrs by ATP content assay

cells [11] = assay type: functional, cell-based; conditions: Homo sapiens, HCC827
Description: Antiproliferative activity against human HCC827 cells after hrs by ATP content assay

NCI-H358 [12] = test: Antitumor activity against human NCI-H358 cells xenografted in nude CD1 mouse at 15 mg/kg, iv dosed daily on 7-6-5 (on-off-on) schedule relative to control; assay type: functional
NCI-H460 = test: cells; assay type: functional, cell-based; conditions: Homo sapiens
Description: Antiproliferative activity against human H460 cells after hrs by ATP content assay

NCI-H358 [13] = test: cells; assay type: functional, cell-based; conditions: Homo sapiens
Description: Antiproliferative activity against human NCI-H358 cells after hrs by ATP content assay

SK-BR-3 = test: cells; assay type: functional, cell-based; conditions: Homo sapiens
Description: Antiproliferative activity against human SK-BR-3 cells after hrs by ATP content assay

[14] = biological target: Fibroblast growth factor receptor 2 (Homo sapiens, UniProt P21802); test: Inhibition of FGFR2
BXPC-3 = test: cells; assay type: functional, cell-based; conditions: Homo sapiens
Description: Antiproliferative activity against human BxPC3 cells after hrs by ATP content assay

SK-HEP1 = test: cells; assay type: functional, cell-based; conditions: Homo sapiens
Description: Antiproliferative activity against human SKHEP1 cells after hrs by ATP content assay

NCI-H358 [15] = test: Antitumor activity against human NCI-H358 cells xenografted in nude CD1 mouse at 30 mg/kg, iv dosed daily on 7-6-5 (on-off-on) schedule relative to control; assay type: functional
MDA-MB-468 [16] = test: Antitumor activity against human MDA-MB-468 cells xenografted in nude CD1 mouse assessed as tumor regression at 120 mg/kg, iv daily relative to control; assay type: functional
[17] = biological target: NAD-dependent protein deacetylase sirtuin-1 (Homo sapiens) (UniProt Q96EB6); test: Inhibition of human SIRT1 expressed in Escherichia coli
[18] = biological target: Vascular endothelial growth factor receptor 2 (Homo sapiens, UniProt P35968); test: Inhibition of KDR
HPAC = test: Antitumor activity against human HPAC cells xenografted in nude CD1 mouse at 120 mg/kg, iv daily relative to control; assay type: functional
[19] = biological target: Receptor-type tyrosine-protein kinase FLT3 (Homo sapiens, UniProt P36888); test: Inhibition of Flt3
CAL-27 = test: Antitumor activity against human CAL27 cells xenografted in nude CD1 mouse assessed as tumor regression at 120 mg/kg, iv daily relative to control; assay type: functional
HepG2 [20] = test: Antiproliferative activity against human HepG2 cells after hrs by ATP content assay; assay type: functional, cell-based
MCF7 = test: cells; assay type: functional, cell-based; conditions: Homo sapiens
Description: Antiproliferative activity against human MCF7 cells after hrs by ATP content assay

HCT-116 = test: Antitumor activity against human HCT116 cells xenografted in nude CD1 mouse at 60 mg/kg, iv dosed daily on 5-2-5 (on-off-on) schedule relative to control; assay type: functional
MDA-MB-468 [21] = test: Antitumor activity against human MDA-MB-468 cells xenografted in nude CD1 mouse at 75 mg/kg, po bid relative to control
HepG2 [22] = test: Antitumor activity against human HepG2 cells xenografted in nude CD1 mouse at 25 mg/kg, po daily relative to control; assay type: functional
HepG2 [23] = test: Antitumor activity against human HepG2 cells xenografted in nude CD1 mouse at 72 mg/kg, iv daily relative to control; assay type: functional

Sequence of Epidermal growth factor receptor (P00533 whole entry): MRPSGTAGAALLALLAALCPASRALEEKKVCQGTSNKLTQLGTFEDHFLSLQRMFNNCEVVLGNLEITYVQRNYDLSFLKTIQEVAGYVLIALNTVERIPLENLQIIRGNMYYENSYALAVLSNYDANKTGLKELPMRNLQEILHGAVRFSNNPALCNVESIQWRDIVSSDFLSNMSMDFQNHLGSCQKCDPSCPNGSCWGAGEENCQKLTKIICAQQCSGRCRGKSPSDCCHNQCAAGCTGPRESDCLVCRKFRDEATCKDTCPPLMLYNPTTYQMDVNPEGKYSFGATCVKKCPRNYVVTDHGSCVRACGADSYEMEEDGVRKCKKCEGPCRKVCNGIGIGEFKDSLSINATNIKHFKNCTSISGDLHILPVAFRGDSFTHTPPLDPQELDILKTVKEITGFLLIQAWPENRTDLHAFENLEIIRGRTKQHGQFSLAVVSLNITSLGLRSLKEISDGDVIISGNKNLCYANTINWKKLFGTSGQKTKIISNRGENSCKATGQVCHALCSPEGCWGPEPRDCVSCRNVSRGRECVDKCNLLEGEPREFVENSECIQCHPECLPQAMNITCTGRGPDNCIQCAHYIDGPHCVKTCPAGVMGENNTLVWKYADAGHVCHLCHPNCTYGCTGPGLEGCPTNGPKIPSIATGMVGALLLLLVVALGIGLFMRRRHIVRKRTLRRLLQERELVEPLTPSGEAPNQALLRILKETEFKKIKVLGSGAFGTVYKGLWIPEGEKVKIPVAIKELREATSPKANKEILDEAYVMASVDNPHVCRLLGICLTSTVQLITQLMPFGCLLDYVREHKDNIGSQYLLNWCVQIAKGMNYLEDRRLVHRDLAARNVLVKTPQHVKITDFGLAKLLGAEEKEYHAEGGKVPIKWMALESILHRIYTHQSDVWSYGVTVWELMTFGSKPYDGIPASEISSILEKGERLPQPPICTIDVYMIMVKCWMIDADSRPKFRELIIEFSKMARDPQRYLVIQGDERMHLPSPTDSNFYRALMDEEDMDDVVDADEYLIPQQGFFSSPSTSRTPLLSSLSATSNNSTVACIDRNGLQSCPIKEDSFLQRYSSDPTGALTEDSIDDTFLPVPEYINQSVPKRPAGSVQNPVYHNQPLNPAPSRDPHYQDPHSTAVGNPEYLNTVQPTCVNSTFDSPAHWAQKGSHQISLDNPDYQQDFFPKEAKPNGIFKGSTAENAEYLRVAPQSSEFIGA
Sequence of Receptor tyrosine-protein kinase erbB-2 (P04626 whole entry): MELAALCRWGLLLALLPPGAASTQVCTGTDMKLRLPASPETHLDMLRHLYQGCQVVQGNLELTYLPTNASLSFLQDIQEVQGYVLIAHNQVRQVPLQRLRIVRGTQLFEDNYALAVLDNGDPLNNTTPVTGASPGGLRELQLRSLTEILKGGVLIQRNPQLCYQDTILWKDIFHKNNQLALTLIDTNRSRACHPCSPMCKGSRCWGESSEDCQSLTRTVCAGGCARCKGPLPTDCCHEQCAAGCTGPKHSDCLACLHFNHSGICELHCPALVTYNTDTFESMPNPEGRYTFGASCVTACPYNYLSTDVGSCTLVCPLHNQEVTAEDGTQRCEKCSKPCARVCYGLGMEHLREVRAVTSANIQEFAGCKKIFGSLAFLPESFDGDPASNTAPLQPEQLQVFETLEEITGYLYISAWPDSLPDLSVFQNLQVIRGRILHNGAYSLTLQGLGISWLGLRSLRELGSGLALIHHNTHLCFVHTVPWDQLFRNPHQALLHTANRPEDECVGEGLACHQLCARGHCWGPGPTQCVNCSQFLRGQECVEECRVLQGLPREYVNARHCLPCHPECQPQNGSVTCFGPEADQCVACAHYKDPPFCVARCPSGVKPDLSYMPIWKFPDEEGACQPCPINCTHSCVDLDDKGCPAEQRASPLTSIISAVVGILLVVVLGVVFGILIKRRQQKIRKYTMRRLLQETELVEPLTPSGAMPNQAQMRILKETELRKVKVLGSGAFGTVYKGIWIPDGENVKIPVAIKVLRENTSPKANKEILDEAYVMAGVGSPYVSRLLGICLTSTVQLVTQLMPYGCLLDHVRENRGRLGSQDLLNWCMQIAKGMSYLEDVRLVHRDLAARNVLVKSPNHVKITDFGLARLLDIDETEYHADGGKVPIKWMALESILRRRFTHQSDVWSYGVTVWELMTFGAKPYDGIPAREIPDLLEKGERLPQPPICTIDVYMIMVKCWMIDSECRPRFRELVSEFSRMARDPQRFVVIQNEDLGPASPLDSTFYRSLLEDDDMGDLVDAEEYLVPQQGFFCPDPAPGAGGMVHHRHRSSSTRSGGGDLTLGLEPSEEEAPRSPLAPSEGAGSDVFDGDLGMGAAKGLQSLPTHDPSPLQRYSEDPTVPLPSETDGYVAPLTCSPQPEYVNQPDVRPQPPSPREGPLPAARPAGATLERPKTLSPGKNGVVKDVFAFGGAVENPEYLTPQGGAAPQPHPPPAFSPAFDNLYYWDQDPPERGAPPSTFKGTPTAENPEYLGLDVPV
Sequence of Proto-oncogene tyrosine-protein kinase Src (P12931 2-536 limits assumed): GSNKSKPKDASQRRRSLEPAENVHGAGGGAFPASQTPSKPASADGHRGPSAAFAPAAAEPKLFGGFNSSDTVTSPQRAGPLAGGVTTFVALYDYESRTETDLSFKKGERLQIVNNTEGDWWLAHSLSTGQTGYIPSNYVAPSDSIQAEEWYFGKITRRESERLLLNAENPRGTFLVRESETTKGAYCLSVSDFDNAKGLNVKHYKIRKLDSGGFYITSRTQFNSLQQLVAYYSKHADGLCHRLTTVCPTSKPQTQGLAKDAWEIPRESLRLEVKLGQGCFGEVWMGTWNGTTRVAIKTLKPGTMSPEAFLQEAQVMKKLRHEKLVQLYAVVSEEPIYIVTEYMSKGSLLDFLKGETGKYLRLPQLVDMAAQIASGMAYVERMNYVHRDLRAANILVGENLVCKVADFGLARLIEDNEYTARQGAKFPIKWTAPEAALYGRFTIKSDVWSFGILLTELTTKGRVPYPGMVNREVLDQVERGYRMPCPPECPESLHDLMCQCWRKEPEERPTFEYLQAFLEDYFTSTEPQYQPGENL
Sequence of Vascular endothelial growth factor receptor 2 (P35968 whole entry): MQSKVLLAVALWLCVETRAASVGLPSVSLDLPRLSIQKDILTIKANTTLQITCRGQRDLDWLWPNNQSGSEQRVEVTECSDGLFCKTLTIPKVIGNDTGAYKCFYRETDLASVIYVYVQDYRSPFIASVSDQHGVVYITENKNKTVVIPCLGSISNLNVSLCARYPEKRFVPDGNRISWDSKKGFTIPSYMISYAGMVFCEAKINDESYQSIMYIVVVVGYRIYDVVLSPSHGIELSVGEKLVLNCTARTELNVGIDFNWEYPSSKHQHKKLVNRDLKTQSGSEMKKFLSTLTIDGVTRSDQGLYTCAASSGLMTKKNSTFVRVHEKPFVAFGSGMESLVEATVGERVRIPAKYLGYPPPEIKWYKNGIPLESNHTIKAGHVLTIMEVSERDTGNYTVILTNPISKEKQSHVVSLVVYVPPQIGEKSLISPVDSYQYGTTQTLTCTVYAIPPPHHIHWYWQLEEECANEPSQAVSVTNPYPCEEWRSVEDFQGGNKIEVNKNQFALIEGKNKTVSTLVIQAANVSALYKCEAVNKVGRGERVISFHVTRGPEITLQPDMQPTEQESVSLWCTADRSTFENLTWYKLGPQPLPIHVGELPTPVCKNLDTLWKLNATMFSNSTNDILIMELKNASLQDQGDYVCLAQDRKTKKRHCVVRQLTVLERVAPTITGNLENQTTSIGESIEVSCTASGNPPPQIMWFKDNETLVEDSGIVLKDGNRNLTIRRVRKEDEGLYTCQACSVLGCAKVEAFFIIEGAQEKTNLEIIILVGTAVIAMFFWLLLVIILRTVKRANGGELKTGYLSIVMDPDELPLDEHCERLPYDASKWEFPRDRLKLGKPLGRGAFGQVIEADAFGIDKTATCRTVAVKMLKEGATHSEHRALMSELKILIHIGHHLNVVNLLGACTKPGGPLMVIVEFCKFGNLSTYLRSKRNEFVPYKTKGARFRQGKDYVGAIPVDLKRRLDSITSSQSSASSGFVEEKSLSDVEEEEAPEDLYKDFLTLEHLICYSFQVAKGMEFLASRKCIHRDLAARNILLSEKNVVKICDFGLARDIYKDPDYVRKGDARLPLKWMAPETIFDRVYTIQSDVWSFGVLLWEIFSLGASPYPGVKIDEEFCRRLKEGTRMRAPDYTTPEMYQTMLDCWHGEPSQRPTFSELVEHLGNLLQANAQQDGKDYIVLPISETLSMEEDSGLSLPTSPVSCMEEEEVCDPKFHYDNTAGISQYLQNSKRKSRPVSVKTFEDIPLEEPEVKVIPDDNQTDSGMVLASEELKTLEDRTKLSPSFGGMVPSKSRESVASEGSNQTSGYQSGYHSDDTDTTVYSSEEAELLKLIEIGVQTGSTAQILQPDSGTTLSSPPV
Sequence of Tyrosine-protein kinase Lyn (P07948 whole entry): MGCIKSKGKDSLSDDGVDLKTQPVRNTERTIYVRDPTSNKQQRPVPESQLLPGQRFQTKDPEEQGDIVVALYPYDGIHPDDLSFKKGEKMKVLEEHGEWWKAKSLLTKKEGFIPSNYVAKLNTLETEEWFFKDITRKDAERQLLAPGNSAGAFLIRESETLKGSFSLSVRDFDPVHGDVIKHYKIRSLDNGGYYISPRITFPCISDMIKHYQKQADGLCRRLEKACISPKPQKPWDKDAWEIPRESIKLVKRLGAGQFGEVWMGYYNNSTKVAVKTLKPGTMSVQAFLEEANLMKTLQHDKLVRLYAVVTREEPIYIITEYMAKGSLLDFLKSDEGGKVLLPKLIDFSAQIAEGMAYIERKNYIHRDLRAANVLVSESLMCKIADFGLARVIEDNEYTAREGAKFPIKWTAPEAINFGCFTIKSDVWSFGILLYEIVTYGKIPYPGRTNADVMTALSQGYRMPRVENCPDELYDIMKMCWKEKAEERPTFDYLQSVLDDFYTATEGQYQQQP

Structure (SMILES): COc1cc2ncnc(Nc3ccc(F)c(Cl)c3)c2cc1OCCC(=O)NO
- IC50 (Histone deacetylase): 40900 nM
- IC50 [1]: 10.6 nM
- IC50 [2]: 7.1 nM

Structure (SMILES): COc1cc2ncnc(Nc3ccc(OCc4cccc(F)c4)c(Cl)c3)c2cc1OCCCCCCC(=O)NO
- IC50 (Histone deacetylase): 58.1 nM
- IC50 [1]: 10.1 nM
- IC50 [2]: 9.08 nM

Structure (SMILES): COc1cc2ncnc(N[C@@H](C)c3ccccc3)c2cc1OCCCCCCC(=O)NO
- IC50 (Histone deacetylase): 25.7 nM
- IC50 [1]: > 2000 nM

Structure (SMILES): C#Cc1cccc(Nc2ncnc3cc(OC)c(OCCCCCC(=O)NO)cc23)c1
- IC50 (Histone deacetylase): 13.2 nM
- IC50 [1]: 38.2 nM
- IC50 [2]: 4.6 nM

Structure (SMILES): COc1cc2ncnc(NCc3ccc(Cl)c(F)c3)c2cc1OCCCCCCC(=O)NO
- IC50 (Histone deacetylase): 11.3 nM
- IC50 [1]: 478 nM
- IC50 [2]: 72 nM

Structure (SMILES): COc1cc2ncnc(Nc3ccc(F)c(Cl)c3)c2cc1S(=O)(=O)CCCCCCC(=O)NO
- IC50 (Histone deacetylase): 121.7 nM
- IC50 [1]: > 2000 nM
- IC50 [2]: 15.4 nM

Structure (SMILES): C#Cc1cccc(Nc2ncnc3cc(OC)c(OCCCCCCC(=O)NO)cc23)c1 [CUDC-101]
- IC50 (MDA-MB-231): 100 nM
- IC50 (cells [3]): 230 nM
- IC50 [4]: 11 µM
- Activity (NCI-H358 [5]): 6.5%
- Activity (A549): 35.9%
- Activity [6]: inactive
- Activity [7]: inactive
- Activity (HepG2 [8]): -21.3%
- IC50 [9]: 5.91 µM
- IC50 [10]: 840 nM
- IC50 (CAPAN-1): 800 nM
- IC50 (cells [11]): 600 nM
- Activity (NCI-H358 [12]): 41.9%
- IC50 (NCI-H460): 700 nM
- IC50 (NCI-H358 [13]): 400 nM
- IC50 (SK-BR-3): 40 nM
- IC50 [14]: 3.43 µM
- IC50 (BXPC-3): 270 nM
- IC50 (SK-HEP1): 220 nM
- Activity (NCI-H358 [15]): 10.3%
- Activity (MDA-MB-468 [16]): -13.7%
- Activity [17]: inactive
- IC50 [18]: 849 nM
- Activity (HPAC): 35.1%
- IC50 [19]: 1500 nM
- Activity (CAL-27): -36.5%
- IC50 (HepG2 [20]): 130 nM
- IC50 (MCF7): 550 nM
- Activity (HCT-116): 35.3%

Structure (SMILES): C#Cc1cccc(Nc2ncnc3cc(OC)c(OCCCCC(=O)NO)cc23)c1
- IC50 (Histone deacetylase): 421 nM
- IC50 [1]: 38.4 nM

Structure (SMILES): COc1cc2ncnc(Nc3ccc(F)c(Cl)c3)c2cc1OCCCCCCC(=O)NO
- IC50 (MDA-MB-231): 370 nM
- IC50 (cells [3]): 600 nM
- IC50 (Histone deacetylase): 6.5 nM
- IC50 [1]: 19 nM
- IC50 (CAPAN-1): 1730 nM
- IC50 (cells [11]): 930 nM
- IC50 (NCI-H460): 900 nM
- IC50 (NCI-H358 [13]): 710 nM
- IC50 (SK-BR-3): 170 nM
- IC50 (BXPC-3): 380 nM
- IC50 (SK-HEP1): 330 nM
- IC50 (HepG2 [20]): 290 nM
- IC50 (MCF7): 1100 nM

Structure (SMILES): C#Cc1cccc(Nc2ncnc3cc(OCCCCCCC(=O)NO)c(OC)cc23)c1
- IC50 (Histone deacetylase): 34.1 nM
- IC50 [1]: 51.6 nM
- IC50 [2]: 8.2 nM

Structure (SMILES): COc1cc2ncnc(Nc3ccc(F)c(Cl)c3)c2cc1NC(=O)CCCCCCC(=O)NO
- IC50 (Histone deacetylase): 15.3 nM
- IC50 [1]: 20.1 nM
- IC50 [2]: 2.1 nM

Structure (SMILES): COc1cc2ncnc(Nc3ccc(F)c(Cl)c3)c2cc1SCCCCCCC(=O)NO
- IC50 (Histone deacetylase): 39.6 nM
- IC50 [1]: 24.2 nM
- IC50 [2]: 1.99 nM

Structure (SMILES): COCCOc1cc2ncnc(Nc3ccc(F)c(Cl)c3)c2cc1OCCCCCCC(=O)NO
- IC50 (Histone deacetylase): 8.4 nM
- IC50 [1]: 24 nM
- IC50 [2]: 10.4 nM

Structure (SMILES): COc1cc2ncnc(NC(C)c3ccc(F)cc3)c2cc1OCCCCCCC(=O)NO (single isomer, unassigned)
- IC50 (Histone deacetylase): 165.3 nM
- IC50 [1]: 175 nM
- IC50 [2]: 126 nM

Structure (SMILES): COc1cc2ncnc(Nc3ccc(F)c(Cl)c3)c2cc1OCCCCC(=O)NO
- IC50 (Histone deacetylase): 551 nM
- IC50 [1]: 15 nM
- IC50 [2]: 9.4 nM

Structure (SMILES): COc1cc2c(Nc3ccc(F)c(Cl)c3)ncnc2cc1OCCCCCCC(=O)NO
- IC50 (Histone deacetylase): 66.6 nM
- IC50 [1]: 71.2 nM
- IC50 [2]: 7 nM

Structure (SMILES): COc1cc2ncnc(Nc3ccc(F)c(Cl)c3)c2cc1OCCCCCC(=O)NO
- IC50 (Histone deacetylase): 31 nM
- IC50 [1]: 20 nM
- IC50 [2]: 3.4 nM

Structure (SMILES): COc1cc2ncnc(NCc3ccccc3)c2cc1OCCCCCCC(=O)NO
- IC50 (Histone deacetylase): 4.2 nM
- IC50 [1]: 225 nM
- IC50 [2]: 99.4 nM

Structure (SMILES): CS(=O)(=O)CCNCc1ccc(-c2ccc3ncnc(Nc4ccc(OCc5cccc(F)c5)c(Cl)c4)c3c2)o1 [LAPATINIB]
- IC50 (MDA-MB-231): 5400 nM
- IC50 (cells [3]): 5490 nM
- Activity (MDA-MB-468 [21]): 51%
- IC50 (SK-BR-3): 40 nM
- IC50 (SK-HEP1): 5300 nM
- IC50 (HepG2 [20]): 6270 nM
- IC50 (MCF7): 6600 nM

Structure (SMILES): COc1cc2ncnc(NCc3ccc(F)cc3)c2cc1OCCCCCCC(=O)NO
- IC50 (Histone deacetylase): 5.6 nM
- IC50 [1]: 295 nM

Structure (SMILES): COc1cc2ncnc(NC(C)c3ccc(Cl)cc3)c2cc1OCCCCCCC(=O)NO (single isomer, unassigned)
- IC50 (Histone deacetylase): 188 nM
- IC50 [1]: 557 nM
- IC50 [2]: 614 nM

Structure (SMILES): COc1cc2ncnc(N[C@H](C)c3ccccc3)c2cc1OCCCCCCC(=O)NO
- IC50 (Histone deacetylase): 98.4 nM
- IC50 [1]: 27.8 nM

Structure (SMILES): O=C(CCCCCCOc1ccc2ncnc(Nc3ccc(F)c(Cl)c3)c2c1)NO
- IC50 (Histone deacetylase): 4.4 nM
- IC50 [1]: 43.5 nM
- IC50 [2]: 84.2 nM

Structure (SMILES): C#Cc1cccc(Nc2ncnc3cc(OCCOC)c(OCCOC)cc23)c1 [ERLOTINIB]
- Activity (HepG2 [22]): 50.8%

Structure (SMILES): COc1cc2ncnc(Nc3ccc(F)c(Cl)c3)c2cc1OCCCC(=O)NO
- IC50 (Histone deacetylase): > 100000 nM
- IC50 [1]: 12.4 nM
- IC50 [2]: 7.8 nM

Structure (SMILES): C#Cc1cc(Nc2ncnc3cc(OC)c(OCCCCCCC(=O)NO)cc23)ccc1F
- IC50 (Histone deacetylase): 3.4 nM
- IC50 [1]: 76.5 nM
- IC50 [2]: 28.8 nM

Structure (SMILES): O=C(CCCCCCC(=O)Nc1ccccc1)NO [VORINOSTAT]
- IC50 (MDA-MB-231): 2110 nM
- Activity (HepG2 [23]): 26%
- IC50 (HepG2 [20]): 1660 nM
